Patent US7495104B2, “Quinoline or quinazoline derivatives inhibiting auto-phosphorylation of fibroblast growth factor receptors” (Kirin Beer Kabushiki Kaisha, priority 2001, dated 2009)

target: Bek (Homo sapiens, UniProt P21802); test: Inhibitory activity against Bek-autophosphorylation using ELISA method in OCUM-2MD3 cells; type: cell-based; conditions: 1 hr with compound, read-out: IC50 (concentration necessary for inhibiting 50% of Bek-phosphorylation)
Outline: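 OCUM-2MD3 human scirrhous gastric cancer cells in 0.1% FCS were exposed to compound for 1 hr at 37° C, then lysed. Phospho-tyrosine proteins were captured with anti-phosphotyrosine antibody, probed with anti-Bek antibody and peroxidase read-out (A450). Positive control (1000 nM) set 0%, untreated 100%; IC50 from multi-level dilutions.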

Sequence of Bek (P21802 431-767 limits assumed): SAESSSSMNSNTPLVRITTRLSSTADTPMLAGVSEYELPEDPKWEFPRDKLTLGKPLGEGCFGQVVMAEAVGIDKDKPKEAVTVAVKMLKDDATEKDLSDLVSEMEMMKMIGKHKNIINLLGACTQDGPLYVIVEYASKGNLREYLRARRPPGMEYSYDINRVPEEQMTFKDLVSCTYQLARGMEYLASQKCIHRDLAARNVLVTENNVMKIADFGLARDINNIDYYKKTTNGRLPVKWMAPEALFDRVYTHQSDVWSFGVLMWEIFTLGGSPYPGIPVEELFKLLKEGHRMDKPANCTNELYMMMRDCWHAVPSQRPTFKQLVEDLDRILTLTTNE

First: COc1cc2c(Oc3ccc(NC(=O)NCCC(C)(C)C)cc3)ccnc2cc1OCCCN1CCC(CCO)CC1 [Compound 220, 1-(3,3-Dimethyl-butyl)-3-[4-(7-{3-[4-(2-hydroxy-ethyl)-piperidin-1-yl]-propoxy}-6-methoxy-quinolin-4-yloxy)-phenyl]-urea]
Second: COc1cc2nccc(Oc3ccc(NC(=O)NCCC(C)(C)C)cc3)c2cc1OCCCN1CCOCC1 [Compound 223, 1-(3,3-Dimethyl-butyl)-3-{4-[7-methoxy-6-(3-morpholin-4-yl-propoxy)-quinolin-4-yloxy]-phenyl}-urea]
The IC50 of the first is 4.1-fold lower: 12 nM for the first, 49.8 nM for the second. The first is the more potent here.

Going from `COc1cc2c(Oc3ccc(NC(=O)NCCC(C)(C)C)cc3)ccnc2cc1OCC(=O)O` [Compound 221, (4-{4-[3-(3,3-Dimethyl-butyl)-ureido]-phenoxy}-6-methoxy-quinolin-7-yloxy)-acetic acid] to `COc1cc2nccc(Oc3ccc(NC(=O)NCCC(C)(C)C)cc3)c2cc1OCCN(C)C` [Compound 222, 1-{4-[6-(2-Dimethylamino-ethoxy)-7-methoxy-quinolin-4-yloxy]-phenyl}-3-(3,3-dimethyl-butyl)-urea], the IC50 falls from 762 nM to 24.3 nM (31-fold). The second is the more potent here.

Compared with `COc1cc2nccc(Oc3ccc(NC(=O)NCCC(C)(C)C)cc3)c2cc1OCCCN(C)C` [Compound 224, 1-{4-[6-(3-Dimethylamino-propoxy)-7-methoxy-quinolin-4-yloxy]-phenyl}-3-(3,3-dimethyl-butyl)-urea], `COc1cc2nccc(Oc3ccc(NC(=O)NCCC(C)(C)C)cc3)c2cc1OCCCCN(C)C` [Compound 228, 1-{4-[6-(4-Dimethylamino-butoxy)-7-methoxy-quinolin-4-yloxy]-phenyl}-3-(3,3-dimethyl-butyl)-urea] is 1.8-fold lower in IC50: 70.4 nM for the first, 38.5 nM for the second. The second is the more potent here.

`COc1cc2nccc(Oc3ccc(NC(=O)NCCC(C)(C)C)cc3)c2cc1OCC(O)CN1CCOCC1` (stereo not drawn) [Compound 225, 1-(3,3-Dimethyl-butyl)-3-{4-[6-(2-hydroxy-3-morpholin-4-yl-propoxy)-7-methoxy-quinolin-4-yloxy]-phenyl}-urea] and `COc1cc2nccc(Oc3ccc(NC(=O)NCCC(C)(C)C)cc3)c2cc1OCCCCN1CCOCC1` [Compound 227, 1-(3,3-Dimethyl-butyl)-3-{4-[7-methoxy-6-(4-morpholin-4-yl-butoxy)-quinolin-4-yloxy]-phenyl}-urea] are within 1.5-fold of each other in IC50: 19.9 nM for the first, 23.9 nM for the second.

First: COc1cc2nccc(Oc3ccc(NC(=O)NCCC(C)(C)C)cc3)c2cc1OCC(O)CN(C)C (stereo not drawn) [Compound 226, 1-{4-[6-(3-Dimethylamino-2-hydroxy-propoxy)-7-methoxy-quinolin-4-yloxy]-phenyl}-3-(3,3-dimethyl-butyl)-urea]
Second: COc1cc2c(Oc3ccc(NC(=O)NCCC(C)(C)C)cc3)ccnc2cc1OCCCN1CC(C)OC(C)C1 (stereo not drawn) [Compound 244, 1-(3,3-Dimethyl-butyl)-3-(4-{7-[3-(2,6-dimethyl-morpholin-4-yl)-propoxy]-6-methoxy-quinolin-4-yloxy}-phenyl)-urea]
The IC50 of the first is higher: 27.9 nM for the first, less than 10 nM for the second.

Compared with `COc1cc2c(Oc3ccc(Nc4ccc(C(C)C)cc4)cc3)ccnc2cc1OCC(=O)N1CCOCC1` [Compound 229, 2-{4-[4-(4-Isopropyl-phenylamino)-phenoxy]-6-methoxy-quinolin-7-yloxy}-1-morpholin-4-yl-ethanone], `COc1cc2c(Oc3ccc(Nc4ccc(C(C)(C)C)cc4)cc3)ccnc2cc1OCCN1CC(C)OC(C)C1` (stereo not drawn) [Compound 238, (4-Tert-butyl-phenyl)-(4-{7-[2-(2,6-dimethyl-morpholin-4-yl)-ethoxy]-6-methoxy-quinolin-4-yloxy}-phenyl)-amine] is 3.3-fold lower in IC50: 156 nM for the first, 47.2 nM for the second.

Compared with `COc1cc2c(Oc3ccc(NC(=O)NCCC(C)(C)C)c(F)c3)ccnc2cc1OC(=O)N1CCC(N2CCCCC2)CC1` [Compound 230, 4-{4-[3-(3,3-Dimethyl-butyl)-ureido]-3-fluoro-phenoxy}-6-methoxy-quinolin-7-yl [1,4′]bipiperidineyl-1′-carboxylate], `COc1cc2c(Oc3ccc(Nc4ccc(C(C)(C)C)cc4)cc3)ccnc2cc1OCCN1CCC(N2CCCCC2)CC1` [Compound 242, {4-[7-(2-[1,4′]Bipiperidineyl-1′-yl-ethoxy)-6-methoxy-quinolin-4-yloxy]-phenyl}-(4-tert-butyl-phenyl)-amine] is 12-fold higher in IC50: 32.1 nM for the first, 401 nM for the second.

Compared with `COc1cc2nccc(Oc3ccc(NC(=O)NCCC(C)(C)C)cc3F)c2cc1OCCCN1CC(C)OC(C)C1` (stereo not drawn) [Compound 231, 1-(3,3-Dimethyl-butyl)-3-(4-{6-[3-(2,6-dimethyl-morpholin-4-yl)-propoxy]-7-methoxy-quinolin-4-yloxy}-3-fluoro-phenyl)-urea], `COc1cc2c(Oc3ccc(NC(=O)NCCC(C)(C)C)cc3)ccnc2cc1OCCCN1CC(C)CC(C)C1` (stereo not drawn) [Compound 245, 1-(3,3-Dimethyl-butyl)-3-(4-{7-[3-(3,5-dimethyl-piperidin-1-yl)-propoxy]-6-methoxy-quinolin-4-yloxy}-phenyl)-urea] is 6.8-fold lower in IC50: 113 nM for the first, 16.5 nM for the second.

First: COc1cc2c(Oc3ccc(Nc4ccc(C(C)(C)C)cc4)cc3)ccnc2cc1OCCCN1CC(C)OC(C)C1 (stereo not drawn) [Compound 232, (4-Tert-butyl-phenyl)-(4-{7-[3-(2,6-dimethyl-morpholin-4-yl)-propoxy]-6-methoxy-quinolin-4-yloxy}-phenyl)-amine]
Second: COc1cc2c(Oc3ccc(Nc4ccc(C(C)(C)C)cc4)cc3)ccnc2cc1OCCCN1CC(C)CC(C)C1 (stereo not drawn) [Compound 233, (4-Tert-butyl-phenyl)-(4-{7-[3-(3,5-dimethyl-piperidin-1-yl)-propoxy]-6-methoxy-quinolin-4-yloxy}-phenyl)-amine]
The IC50 of the first is 3.6-fold lower: 103 nM for the first, 371 nM for the second.

`COc1cc2c(Oc3ccc(Nc4ccc(C(C)(C)C)cc4)cc3)ccnc2cc1OCCCN1CCC(N2CCCCC2)CC1` [Compound 236, {4-[7-(3-[1,4′]Bipiperidineyl-1 ′-yl-propoxy)-6-methoxy-quinolin-4-yloxy]-phenyl}-(4-tert-butyl-phenyl)-amine] and `COc1cc2c(Oc3ccc(Nc4ccc(C(C)(C)C)cc4)cc3)ccnc2cc1OCCCN1CCC(N2CCCC2)CC1` [Compound 237, (4-Tert-butyl-phenyl)-(4-{6-methoxy-7-[3-(4-pyrrolidin-1-yl-piperidin-1-yl)-propoxy]-quinolin-4-yloxy}-phenyl)-amine] are within 1.5-fold of each other in IC50: 269 nM for the first, 207 nM for the second.

Going from `COc1cc2c(Oc3ccc(Nc4ccc(C(C)(C)C)cc4)cc3)ccnc2cc1OCCN1CC(C)CC(C)C1` (stereo not drawn) [Compound 239, (4-Tert-butyl-phenyl)-(4-{7-[2-(3,5-dimethyl-piperidin-1-yl)-ethoxy]-6-methoxy-quinolin-4-yloxy}-phenyl)-amine] to `COc1cc2c(Oc3ccc(Nc4ccc(C(C)(C)C)cc4)cc3)ccnc2cc1OCCN1CCC(N2CCCC2)CC1` [Compound 243, (4-Tert-butyl-phenyl)-(4-{6-methoxy-7-[2-(4-pyrrolidin-1-yl-piperidin-1-yl)-ethoxy]-quinolin-4-yloxy}-phenyl)-amine], the IC50 falls from 895 nM to 342 nM (2.6-fold). The second is the more potent here.

First: COc1cc2c(Oc3ccc(NC(=O)NCCC(C)(C)C)cc3)ccnc2cc1OCCCN1CCC(c2ccccc2)CC1 [Compound 246, 1-(3,3-Dimethyl-butyl)-3-(4-{6-methoxy-7-[3-(4-phenyl-piperidin-1-yl)-propoxy]-quinolin-4-yloxy}-phenyl)-urea]
Second: COc1cc2c(Oc3ccc(NC(=O)NCCC(C)(C)C)cc3)ccnc2cc1OCCCN1CCC(Cc2ccccc2)CC1 [Compound 247, 1-(4-{7-[3-(4-Benzyl-piperidin-1-yl)-propoxy]-6-methoxy-quinolin-4-yloxy}-phenyl)-3-(3,3-dimethyl-butyl)-urea]
The IC50 of the first is 2.7-fold lower: 30.9 nM for the first, 81.9 nM for the second. The first is the more potent here.
